Assay results published in patent US9102648B1, “Bioavailable diacylhydrazine ligands for modulating the expression of exogenous genes via an ecdysone receptor complex” (Intrexon Corporation, priority 2003, dated 2015).
Where two headings read alike, the source gives them in different places.

How the values were obtained:
[1] = target: T1, Bombyx mori EcR (VP16 fusion, CVBE switch construct) (Bombyx mori, UniProt P49881); experiment: Z3 Assay (HEK-293 cells with CVBE and 6XEcRE LacZ, β-galactosidase reporter); settings: for fold induction at 3.3 µM: HEK293, read-out: Fold Induction, Z3 Assay, 3.3 uM; for fold induction at 33 µM: HEK293, read-out: Fold Induction, Z3 Assay, 33 uM; for Z3 assay Rel Max FI: maximum fold induction at any concentration relative to that of GS-E ligand; for Fold Induction, Z3 Assay, 33 uM: 33 uM ligand; for Fold Induction, Z3 Assay, 33 uM / Fold Induction, Z3 Assay, 3.3 uM: ligand treated / DMSO treated cells; for Fold Induction, Z3 Assay, 3.3 uM: 3.3 uM ligand
T1 sequence (P49881 86-606): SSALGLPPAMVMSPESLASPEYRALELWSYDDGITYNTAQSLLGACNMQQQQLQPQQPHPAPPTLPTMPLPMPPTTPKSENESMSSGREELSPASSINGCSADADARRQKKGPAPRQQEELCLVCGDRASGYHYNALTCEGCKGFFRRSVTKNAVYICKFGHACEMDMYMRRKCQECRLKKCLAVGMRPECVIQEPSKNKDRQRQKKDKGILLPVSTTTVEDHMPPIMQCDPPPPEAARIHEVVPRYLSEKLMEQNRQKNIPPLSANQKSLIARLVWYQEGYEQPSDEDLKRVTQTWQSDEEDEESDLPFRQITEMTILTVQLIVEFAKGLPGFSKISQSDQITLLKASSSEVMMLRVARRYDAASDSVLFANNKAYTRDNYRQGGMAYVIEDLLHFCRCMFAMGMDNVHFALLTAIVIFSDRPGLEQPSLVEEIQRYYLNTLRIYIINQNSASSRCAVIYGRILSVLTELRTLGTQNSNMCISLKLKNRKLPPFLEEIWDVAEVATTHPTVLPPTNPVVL
T1 sequence (P19793 1-462 partner): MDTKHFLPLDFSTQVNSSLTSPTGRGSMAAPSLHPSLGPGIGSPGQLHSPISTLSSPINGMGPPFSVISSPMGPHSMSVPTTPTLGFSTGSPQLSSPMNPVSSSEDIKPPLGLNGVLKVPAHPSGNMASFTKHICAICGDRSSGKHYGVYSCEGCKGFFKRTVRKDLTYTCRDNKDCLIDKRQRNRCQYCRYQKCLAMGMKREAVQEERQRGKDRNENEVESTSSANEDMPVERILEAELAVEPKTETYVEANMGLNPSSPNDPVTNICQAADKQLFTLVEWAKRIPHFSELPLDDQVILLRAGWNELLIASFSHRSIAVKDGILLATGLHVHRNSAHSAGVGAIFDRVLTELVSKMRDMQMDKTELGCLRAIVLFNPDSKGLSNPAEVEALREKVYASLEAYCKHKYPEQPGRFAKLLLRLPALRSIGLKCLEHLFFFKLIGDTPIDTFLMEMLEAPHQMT

[2] = Determination of LC Log P (experimental); assay type: physicochemical
Procedure: Liquid chromatography retention times (RT) are measured for each substance using the conditions described below. A linear equation is derived relating RT to log P is developed from the data for the log P standards. The log P for the test compound is calculated from the log P/retention time equation.

[3] = read-out: Z3 assay EC50, HEK-293 Z3 cells, β-galactosidase reporter, average of two wells

Row | Structure (SMILES) | EC50 [1] [µM] | fold induction at 3.3 µM [1] | fold induction at 33 µM [1] | logP ([2]; diacylhydrazine log P standards (log P known experimentally)) | Z3 assay Rel Max FI ([1]; HEK-293 Z3 cells) | chromatographic logP ([2]; from LC retention time against log P standards, read-out: LC LogP (exp)) | Fold Induction, Z3 Assay, 33 uM ([1]; average of two wells) | Fold Induction, Z3 Assay, 3.3 uM ([1]; average of two wells) | EC50 [1, 3] [µM]
1 | CC(C)(C)N(NC(=O)c1ccc(Cl)cc1)C(=O)c1ccccc1 [RG-100864] | 2.24 | 63 | 840 | 3.2 | – | – | – | – | –
2 | COc1cccc(C(=O)NN(C(=O)c2cc(Cl)c(F)c(Cl)c2)C(C)(C)C)c1C [RG-101382, N-(3-methoxy-2-methylbenzoyl)-N′-(3,5-dichloro-4-fluorobenzoyl)-N′-tert-butylhydrazine] | 0.066 | 725 | 426 | – | 0.951 | 4.4 | – | – | –
3 | CCc1c(C(=O)NN(C(=O)c2ccc(F)c(C(F)(F)F)c2)C(C)(C)C)ccc2c1OCCO2 [RG-115280] | – | – | – | – | – | – | 376 | – | –
4 | CCc1c(C(=O)NN(C(=O)c2cc(Cl)nc(Cl)c2)C(C)(C)C)ccc2c1OCCO2 [RG-115297] | – | – | – | – | 0.872 | – | 604 | 443 | 0.066
5 | CCc1c(OC)cccc1C(=O)NN(C(=O)c1cc(F)c(Cl)cc1Cl)C(C)(C)C [RG-115302] | – | – | – | – | – | – | 404 | – | 0.275
6 | COc1cccc(C(=O)NN(C(=O)c2cc(C)cc(C)c2)C(C)(C)C)c1N [RG-115378] | – | – | – | – | 0.947 | – | 1464 | 488 | 0.324
7 | Cc1ccc([N+](=O)[O-])c(C(=O)N(NC(=O)c2ccc3c(c2C)OCCO3)C(C)(C)C)c1 [RG-115384] | – | – | – | – | 0.904 | – | – | 337 | 0.166
8 | CCc1c(OC)cccc1C(=O)NN(C(=O)c1cc(C)cc(C)c1)C(C)(C)C=O [RG-115407, 2-ethyl-3-methoxy-benzoic acid N′-(3,5-dimethyl-benzoyl)-N′-(1,1-dimethyl-2-oxo-ethyl)-hydrazide] | 0.347 | 391 | 879 | – | 0.906 | – | – | – | –
9 | Cc1c(C(=O)NN(C(=O)c2ccc(F)c(F)c2)C(C)(C)C)ccc2c1CCCO2 [RG-115416] | – | – | – | – | 1.869 | – | 1116 | 164 | 0.091
10 | Cc1ccc(F)c(C(=O)N(NC(=O)c2ccc3c(c2C)CCCO3)C(C)(C)C)c1 [RG-115499] | – | – | – | – | 0.954 | – | 641 | 173 | 0.17
11 | CCc1c(C(=O)NN(C(=O)c2cc(F)ccc2F)C(C)(C)C)ccc2c1OCCO2 [RG-115508] | – | – | – | – | 0.787 | – | 680 | 199 | 0.537
12 | CCc1c(OC)cccc1C(=O)NN(C(=O)c1cc(C)cc(C)c1)C(C)(C)C=NCCO [RG-115511] | – | – | – | – | 0.66 | – | 570 | 10 | 39
13 | CCc1c(C(=O)NN(C(=O)c2ccc(Cl)cc2F)C(C)(C)C)ccc2c1OCCO2 [RG-115514] | – | – | – | – | 0.970 | – | 658 | 383 | 0.056
14 | Cc1c(C(=O)NN(C(=O)c2cc(F)c(F)c(F)c2F)C(C)(C)C)ccc2c1CCCO2 [RG-115518] | – | – | – | – | 0.834 | – | 803 | 232 | 0.257
15 | Cc1c(C(=O)NN(C(=O)c2cc(F)c(Cl)cc2Cl)C(C)(C)C)ccc2c1CCCO2 [RG-115539] | – | – | – | – | – | – | 339 | – | 0.151
